Source: patent publication US20040014726A1, “Method for the preparation of a pharmaceutical composition, and its use” (priority 2000, published 2004)

Key:
[1] = tested on: isolated rat osteoclasts; assay: Rat osteoclast culture on bovine bone slices; type: cell-based
Experimental: Osteoclasts can be isolated from long bones of several species and they are cultured on bone or dentine slices to study their resorption activity (Boyde et al. 1984, Chambers et al 1984). Mostly, either rat or rabbit osteoclasts are used. They are isolated from new-born animals and cultured for 1-2 days. The resorption activity is determined either by counting the number of resorption pits on bone/dentine slices or the total resorption area is measured using a phase contrast microscope and image analysis system. We are routinely using isolated rat osteoclasts and we culture them on bovine bone slices for two days, after which we fix the cells. Cells are stained with toluidine blue and counted under the microscope (Arnett and Dempster 1987, Lakkakorpi et al. 1989). Then the cells are removed by brushing them and the resorption pits are stained with WGA lectin, which binds to resorption lacuna in the bone slice. The number and area of pits are quantified (Selander et al. 1994).
(§1) The concentration range of the test compound in these assays was 10^−10-10^−5 M.

[2] = tested on: ovariectomized rats; assay: Tests on ovariectomized rats (pQCT and bone strength); type: in vivo, rat; conditions: 12 weeks
Experimental: The activity of [[(3-hydroxy-2-pyridyl)amino]methylidene]bisphosphonic acid tetraethylester (TC) has been tested in ovariectornized rats. In the said tests, the compound to be tested was administered to six-month old rats. The control rats were sham-operated or overiectomized and given vehicle. The compound was given to ovariectomized rats orally 7 days a week for 12 weeks beginning immediately after the surgery. The doses were 10, 50 and 100 mg/kg/day. At the end of the study, the mineral density and the geometry of the bone was measured with pQCT (peripheral quantitative computed tomography). The strength of the bone was measured with electromechanical materials testing machine. The sites of measurement were the proximal end of the tibia (not strength), the lumbar vertebra, the femoral neck and the tibial mid-diaphysis. The parameters to be measured were the bone density of the trabecular or cortical bone, the cortical area and strength of the bone.

[3] = tested on: osteoclast formation in spleen cell culture; assay: Mouse spleen cell culture, osteoclast formation; type: cell-based
Excerpt: as §1

[4] = tested on: osteoclast formation in mouse bone marrow culture; assay: Mouse bone marrow culture, osteoclast formation (TRAP-positive multinucleated cells); type: cell-based
Experimental: This culture system is the most used method to study osteoclast differentiation (Takahashi et al. 1988a). Mouse marrow cells can be induced to form active osteoclasts in 6-8 days in the presence of an osteotropic factor, such as 1,25(OH)2D3, parathyroid hormone, interleukin-1 or prostaglandin E2 (Takahashi et al. 1988b, Shinar et al. 1990, Collins and Chambers 1992, Jimi et al. 1999). Typically, 10^6 cells are cultured/ml of media for 6 days. Then, the cells are fixed with 3% paraformaldehyde in PBS and stained for osteoclast marker, such as tartrate-resistant acid phosphatase (TRAP). Sigma's immunohistochemical kit can be used. Multinucleated, TRAP-positive cells containing at least 3 nuclei are counted as osteoclasts (Hentunen et al. 1998).
as §1

[5] = tested on: bone metastases of human breast cancer cells in the mouse; assay: Metastasis model in mouse (human breast cancer cells, osteolytic bone lesions); type: in vivo; conditions: 50 mg/kg/day s.c. for 10 days
Experimental: The effect of the test compound has been tested in a metastasis model in the mouse. 14 days after inoculation with human breast cancer cells, when the radiologically detected osteolytic bone lesions were found, the animals were treated either with PBS (control) or the test compound (50 mg/kg/day, s.c.) for 10 days. At the end of the study, osteoclast number and bone area were measured histomorphometrically.

[6] = tested on: mouse osteoprogenitor cells (preosteoblasts) supporting osteoclast formation; assay: Mouse spleen cell/osteoblast co-culture with pre-treated osteoprogenitor cells; type: cell-based; conditions: osteoprogenitor cells incubated with 10^-5 M for 24 h, then co-culture with spleen cells; data not shown
Excerpt: Bone marrow stromal cells have long been known as a source of osteoprogenitor cells (Owen and Friedenstein 1988). […] These preosteoblasts can be further induced to form active osteoblasts by continuing the cultures for two more weeks in the presence of estrogen (17β-estradiol). During this culture period cells begin to express increasing levels of osteoblast markers, such as alkaline phosphatase, type I collagen and osteocalcin, and finally they are able to form bone. Bone formation is detected by bone nodule formation and calcium deposition in the cultures (Qu et al. 1998).
A co-culture system was developed, which contains mouse spleen cells and primary mouse osteoprogenitor cells. Osteoprogenitor cells were prepared from mouse marrow as described in section C.
When these two cell types were cultured in the presence of 1,25(OH)2D3, several osteoclasts were formed. Spleen cells alone with 1,25(OH)2D3 were not able to differentiate into osteoclasts. Mouse osteoprogenitor cells, which were able to support osteoclast formation, were incubated first with 10^−5 M of the said test compound for 24 h and then these cells were used in the co-culture with mouse spleen cells. […] This further supports the idea, that the test compound has direct inhibitory effect on osteoclast precursors.

CCOP(=O)(OCC)C(Nc1ncccc1O)P(=O)(OCC)OCC [test compound, [[(3-hydroxy-2-pyridinyl)amino]methylidene]bisphosphonic acid tetraethylester]
osteoclast-mediated bone resorption ([1]; data not shown): did not have any effect
osteoclast apoptosis ([1]; osteoclasts cultured for 1-2 days on bovine bone slices): did not have any effect
change in the cortical area in the femoral neck caused by ovariectomy ([2]; 50 mg/kg/day oral): inhibited the change
strength of the tibial mid-diaphysis ([2]; 50 mg/kg/day oral): improved, although not to a significantly meaningful degree
cortical area in the tibial mid-diaphysis ([2]; 50 mg/kg/day oral, compared to a normal rat and an ovariectomized rat): increase of the cortical area
change in the trabecular density in the femoral neck caused by ovariectomy ([2]; 100 mg/kg/day oral): inhibited the change
area of the cortical bone in the lumbar vertebra, reduction by ovariectomy ([2]; 50 and 100 mg/kg/day oral): inhibit these changes
density of the trabecular bone in the lumbar vertebra, reduction by ovariectomy ([2]; 50 and 100 mg/kg/day oral): inhibit these changes
strength of the cortical bone in the lumbar vertebra, reduction by ovariectomy ([2]; 50 and 100 mg/kg/day oral): inhibit these changes
thickness of the cortical bone (pQCT), reduction caused by ovariectomy ([2]; oral, FIG. 5 lower row): can be inhibited
inhibition at 1 µM ([3]; Mus musculus, Osteoclast, at 10^-6 M concentration): 60%
TRAP-positive MNC formation ([3]; at 10^-5 M): completely blocked
osteoclast-like cell formation (TRAP-positive MNC or mononuclear cells) ([3]; at 10^-5 M, data not shown): totally blocked
inhibition of osteoclast formation ([3]; compound present on days 4-6): approximately 40%
inhibition of osteoclast formation ([3]; compound present only at days 1-3): more than 60%
osteoclast formation in spleen cell culture ([3]; concentration range 10^-10-10^-5 M): dose dependently inhibited
inhibition at 1 µM ([4]; Mus musculus, Osteoclast, at 10^-6 M): 60%
TRAP-positive MNC formation ([4]; at 10^-5 M): inhibit completely
toxic effect on other cells ([4]; at 10^-5 M): without having toxic effect on other cells
1,25(OH)2D3- and PTH-induced osteoclast formation ([4]; bone marrow culture, concentration range 10^-10-10^-5 M): dose dependently inhibited
tumor induced decrease in bone area at the site of metastases [5]: inhibited
number of osteoclasts at the tumor-bone interface ([5]; compared to PBS control): decreased significantly
support of osteoclast formation by treated preosteoblasts [6]: supported osteoclast formation in the similar manner as non-treated preosteoblasts
